Assays:
HDAC1 = target: T1, HDAC1 (Homo sapiens, UniProt Q13547); assay: HDAC panel assay (enzyme activity); assay type: biochemical
T1 construct: purchased Reaction biology Corp. (Malvern, PA, USA)
Procedure: (§1) HDAC panel assay was performed by Reaction biology Corp. (Malvern, PA, USA) according to their validated protocol. To evaluate the potency and selectivity of CKD-506, HDAC panel assay was carried out by Reaction biology Corp. Briefly, the deacetylation reaction was performed in 50 mM Tris-HCl pH 8.0, 137 mM NaCl, 2.7 mM KCl, 1 mM MgCl2, and 1 mg/ml bovine serum albumin (BSA) with RHK-K(Ac)-AMC as substrate. After the reaction, a fluorescence signal (Ex. 360 nm/Em. 460 nm) developed (~30 min.) by addition of an equal volume of 2 mM nicotinamide, 16 mg/mL trypsin in 50 mM Tris-HCl pH 8.0, 137 mM NaCl, 2.7 mM KCl, and 1 mM MgCl2.

HDAC2 = target: T2, HDAC2 (Homo sapiens, UniProt Q92769); assay: HDAC panel assay (enzyme activity); assay type: biochemical
T2 construct: purchased Reaction biology Corp. (Malvern, PA, USA)
T2 sequence (Q92769 whole entry): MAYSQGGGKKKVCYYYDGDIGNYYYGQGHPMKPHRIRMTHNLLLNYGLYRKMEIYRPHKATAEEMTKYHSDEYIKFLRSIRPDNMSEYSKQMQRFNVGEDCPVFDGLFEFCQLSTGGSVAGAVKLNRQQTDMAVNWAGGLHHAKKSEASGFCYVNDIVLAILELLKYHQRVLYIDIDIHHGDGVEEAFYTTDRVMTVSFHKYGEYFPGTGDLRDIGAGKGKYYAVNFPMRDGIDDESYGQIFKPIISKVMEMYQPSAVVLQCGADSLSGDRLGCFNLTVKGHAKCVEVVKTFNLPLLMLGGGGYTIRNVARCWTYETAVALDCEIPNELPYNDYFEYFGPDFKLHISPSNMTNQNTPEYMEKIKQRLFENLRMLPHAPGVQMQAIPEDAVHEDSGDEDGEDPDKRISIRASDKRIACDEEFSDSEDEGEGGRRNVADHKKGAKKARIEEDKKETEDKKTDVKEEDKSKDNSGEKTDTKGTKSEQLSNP
Procedure: as §1

HDAC7 = target: T3, HDAC7 (Homo sapiens, UniProt Q8WUI4); assay: HDAC panel assay (enzyme activity); assay type: biochemical
T3 construct: purchased Reaction biology Corp. (Malvern, PA, USA)
T3 sequence (Q8WUI4 1-952): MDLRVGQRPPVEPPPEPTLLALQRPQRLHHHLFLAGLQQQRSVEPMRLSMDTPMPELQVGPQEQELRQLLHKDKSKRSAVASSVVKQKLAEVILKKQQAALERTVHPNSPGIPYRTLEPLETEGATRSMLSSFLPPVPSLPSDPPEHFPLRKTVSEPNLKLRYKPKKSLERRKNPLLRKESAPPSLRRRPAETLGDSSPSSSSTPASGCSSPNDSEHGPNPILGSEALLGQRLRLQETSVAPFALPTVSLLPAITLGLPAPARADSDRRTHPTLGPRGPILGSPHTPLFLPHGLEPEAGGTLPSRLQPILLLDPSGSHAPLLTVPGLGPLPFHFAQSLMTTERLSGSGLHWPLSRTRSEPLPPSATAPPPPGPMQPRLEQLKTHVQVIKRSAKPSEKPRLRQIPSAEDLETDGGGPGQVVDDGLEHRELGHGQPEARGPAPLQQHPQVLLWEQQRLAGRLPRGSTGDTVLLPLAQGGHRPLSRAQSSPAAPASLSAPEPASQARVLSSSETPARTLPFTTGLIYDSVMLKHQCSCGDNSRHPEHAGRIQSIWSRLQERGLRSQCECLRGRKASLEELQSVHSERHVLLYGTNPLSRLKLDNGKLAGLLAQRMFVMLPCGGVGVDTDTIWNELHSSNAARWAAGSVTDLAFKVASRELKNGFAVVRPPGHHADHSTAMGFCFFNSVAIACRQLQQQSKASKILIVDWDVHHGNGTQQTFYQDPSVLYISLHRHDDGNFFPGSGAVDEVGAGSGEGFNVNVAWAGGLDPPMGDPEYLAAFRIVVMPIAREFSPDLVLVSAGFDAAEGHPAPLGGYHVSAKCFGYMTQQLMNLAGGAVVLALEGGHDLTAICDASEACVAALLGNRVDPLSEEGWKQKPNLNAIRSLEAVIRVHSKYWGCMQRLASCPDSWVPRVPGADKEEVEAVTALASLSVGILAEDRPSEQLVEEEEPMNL
Procedure: as §1

HDAC8 = target: T4, HDAC8 (Homo sapiens, UniProt Q9BY41); assay: HDAC panel assay (enzyme activity); assay type: biochemical
T4 construct: purchased Reaction biology Corp. (Malvern, PA, USA)
T4 sequence (Q9BY41 1-377): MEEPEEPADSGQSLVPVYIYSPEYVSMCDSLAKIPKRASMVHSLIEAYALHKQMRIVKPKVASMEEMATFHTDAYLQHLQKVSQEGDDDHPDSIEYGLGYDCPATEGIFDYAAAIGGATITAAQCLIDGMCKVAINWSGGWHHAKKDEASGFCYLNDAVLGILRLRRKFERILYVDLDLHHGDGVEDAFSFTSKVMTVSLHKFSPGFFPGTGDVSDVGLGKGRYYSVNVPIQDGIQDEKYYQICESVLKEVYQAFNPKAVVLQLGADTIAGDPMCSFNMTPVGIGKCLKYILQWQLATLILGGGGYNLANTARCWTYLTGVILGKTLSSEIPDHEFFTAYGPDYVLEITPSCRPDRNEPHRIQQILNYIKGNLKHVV
Procedure: as §1

other HDAC isoforms = assay: HDAC panel assay (enzyme activity); assay type: biochemical
Procedure: as §1

[1] = Pharmacokinetic analysis after single intraperitoneal injection; assay type: in vivo, NZB/W F1 mice; conditions: for AUCinf / AUC0-24hr / Cmax / T1/2 / Tmax: plasma, mean ± SD; for AUCinf: extrapolated
Procedure: Four 23-week old female NZB/W F1 mice were purchased from Jackson Laboratory and housed in CKD Research Institute animal facility. This study was reviewed and approved by the Institutional Animal Care and Use Committee of CKD Research Institute. All procedures were in compliance with Animal Welfare Act Regulations and the Guide for the Care and Use of Laboratory Animals. The indicated amount of CKD-506 was injected intraperitoneally into NZB/W F1 mice. Blood samples were collected from retro-orbital plexus using a heparinized capillary tube under diethyl-ether anesthesia at pre-dose (0) and 0.25, 1, 2, 4, 8 and 24 hours post-dose at day of PK sampling. After centrifugation at 13,000 rpm for 4 min and 4 °C, ten microliters of the separated plasma was dispensed into microtube and 120 μl of organic solvent (90% acetonitrile (in MeOH, v/v)) was immediately added for deproteinization/extraction. The pre-treated samples had been kept at −70 °C until analysis. Ten microliters of internal standard (verapamil 500 ng/ml in acetonitrile) was added into the pre-treated plasma samples and vortexed for 1 min and then, centrifuged at 13,000 rpm for 4 min and 4 °C. Eighty microliters of the supernatant of the sample were transferred into a 96 well-autosampler plate and 40 μl of HPLC water was then added in each well. The concentration of CKD-506 in samples were analyzed using API 4000 QTRAP (AB SCIEX) (Framingham, MA).

T1 sequence (Q13547 whole entry): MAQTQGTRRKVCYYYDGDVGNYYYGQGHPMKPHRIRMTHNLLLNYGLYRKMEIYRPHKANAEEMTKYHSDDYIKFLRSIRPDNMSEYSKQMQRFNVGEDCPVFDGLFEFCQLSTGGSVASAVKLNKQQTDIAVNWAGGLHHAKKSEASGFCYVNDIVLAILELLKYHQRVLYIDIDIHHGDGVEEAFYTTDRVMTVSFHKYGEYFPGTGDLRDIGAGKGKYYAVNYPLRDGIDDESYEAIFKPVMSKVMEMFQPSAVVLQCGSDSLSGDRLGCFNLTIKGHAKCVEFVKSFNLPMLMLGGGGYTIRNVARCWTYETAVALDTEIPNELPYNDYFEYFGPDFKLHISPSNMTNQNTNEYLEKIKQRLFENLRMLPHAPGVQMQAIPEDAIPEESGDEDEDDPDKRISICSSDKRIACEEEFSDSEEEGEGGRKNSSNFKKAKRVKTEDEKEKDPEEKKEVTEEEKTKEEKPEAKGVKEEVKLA

CKD-506
IC50 (HDAC1): 2 to 5 µM | IC50 (HDAC2): 2 to 5 µM | IC50 (HDAC7): 2 to 5 µM | IC50 (HDAC8): 2 to 5 µM | inhibition of enzyme activity of other HDAC isoforms (other HDAC isoforms): does not inhibit | AUCinf ([1]; 10 mg/kg i.p. single): 818 ± 130 ng·h/mL | AUC0-24hr ([1]; 10 mg/kg i.p. single): 737 ± 104 ng/h/mL | Cmax ([1]; 10 mg/kg i.p. single): 1336 ± 95.6 ng/mL | T1/2 ([1]; 10 mg/kg i.p. single): 14.0 ± 2.60 h | Tmax ([1]; 10 mg/kg i.p. single): 0.25 ± 0.00 h | time for which dose is enough to inhibit in vivo HDAC6 activity ([1]; 30 mg/kg): more than 2 hr | AUCinf ([1]; 30 mg/kg i.p. single): 2129 ± 275 ng·h/mL | AUC0-24hr ([1]; 30 mg/kg i.p. single): 1997 ± 290 ng/h/mL | Cmax ([1]; 30 mg/kg i.p. single): 3749 ± 314 ng/mL | T1/2 ([1]; 30 mg/kg i.p. single): 9.64 ± 4.08 h | Tmax ([1]; 30 mg/kg i.p. single): 0.25 ± 0.00 h | time for which dose is enough to inhibit (90% of) in vivo HDAC6 activity ([1]; 50 mg/kg): more than 4 hr | AUCinf ([1]; 50 mg/kg i.p. single): 4321 ± 408 ng·h/mL | AUC0-24hr ([1]; 50 mg/kg i.p. single): 4028 ± 419 ng/h/mL | Cmax ([1]; 50 mg/kg i.p. single): 7276 ± 585 ng/mL | T1/2 ([1]; 50 mg/kg i.p. single): 10.0 ± 1.33 h | Tmax ([1]; 50 mg/kg i.p. single): 0.25 ± 0.00 h | exposure (Cmax and AUC) versus dose ([1]; 10, 30, 50 mg/kg i.p.): increased in a dose-dependent manner | plasma half-life (T1/2) ([1]; single IP, overall statement): about 10 hrs
